From patent publication US6790869B2, “Resveratrol analogs for prevention of disease” (Rutgers, The State University of New Jersey, priority 1999, dated 2004) come the findings set out here.

Test [1] has as its system W138 cells. The test can be described thus: Apoptosis assay, fluorescent labeling of fragmented DNA. The format is cell-based, human. The source says: (§1) The effect of the analogs on apoptosis was also examined. Apoptosis is characterized by nuclear DNA fragmentation that is mediated through a variety of signal transduction pathways. An assay was used that relies on fluorescent labeling of fragmented DNA.

A further test deals with W138VA cells. The description is as above. The format is cell-based, human.
Text: as §1

The test system of another test is W138 and W138VA cells. The test can be described thus: Cell proliferation assay, result not separated by cell line. Format: cell-based, human. The method, then:
(§2) Initial tests examined the potential cancer preventive activity of the analogs. Resveratrol and its analogs were evaluated in W138 and SV40 transformed W138VA cells and in preneoplastic 184-B5/HER and neoplastic SK-BR-3 human mammary epithelial cells. Cell proliferation, apoptosis, and gene expression studies were conducted using standard methodologies.
(§3) W138 human diploid fibroblasts and cancerous SV40-transformed W138 cells (W138VA) were used in a cell proliferation assay. Growth rate and viability of these cells was determined following addition of each analog. Doses tested ranged from 50 ng to 300 μg per ml or 1 μM to 100 μM concentrations in culture media. Cell cultures were grown for 5 days in the presence of the various doses of analogs. Growth rate was measured by counting viable cells using the trypan blue dye exclusion method. Resveratrol inhibited cell growth at low concentrations, less than 10 μM. […] MR-1 was not active as an inhibitor of cell growth even at doses as high as 100 μM.

Test [2] deals with SV40-transformed W138 cells (W138VA). The test can be described thus: Cell proliferation assay, viable cells counted by trypan blue dye exclusion. Format: cell-based, human. The settings on record: at the concentration in parentheses after the analog; 5 days in culture. The protocol:
as §2, §3

Test [3] relates to W138 cells. The test can be described thus: Morphological changes in cells. Conditions: normal W138 cells. The format is cell-based, human. The source says:
In addition to inhibition of cell growth, treatment of W138 and W138VA cells with analogs led to morphological changes in the cells. Treatment of W138 cells with resveratrol and its analogs R-1 and R-3 led to elongation of normal W138 cells. Methoxy analogs such as MR-0 and MR-3 caused the flattening of W138 cells.

Test [4] relates to W138 human diploid fibroblasts. The test can be described thus: Cell proliferation assay, viable cells counted by trypan blue dye exclusion. The format is cell-based. The settings on record: at the concentration in parentheses after the analog; 5 days in culture. The method, then: as §2, §3

With `Oc1ccc(C=Cc2cc(O)c(O)c(O)c2)cc1` [Analog R-3, 3,4,4′,5-tetrahydroxystilbene], the induction of apoptosis result in the test with W138 cells [1] is listed as “not in W138 cells”; with W138VA cells, “induced apoptosis”. Further, the “fold less effective than resveratrol in inhibiting cell growth” value in the test with W138 and W138VA cells (relative to resveratrol) is reported as 10 fold. For the same compound, the “effective concentration for growth inhibition” value in the test on W138 and W138VA cells (value in parentheses in Table 1, W138 / W138VA cells, 5 days) is “R3 (10 μM)”. Besides, the “Growth Rate in Cells Following Exposure to Resveratrol Analogs, W138VA Cells” value in test [2] is “+ (>60% growth inhibition)”. Besides, in the test on W138 cells [3], the “morphological change of cells” value is “elongation”. Besides, the “Growth Rate in Cells Following Exposure to Resveratrol Analogs, W138 Cells” value in test [4] is on record as “+ (>60% growth inhibition)”.
